The test system of one test is miR-375. Briefly: qRT-PCR of miR-375 in esophageal biopsies of EE patients. The class given is in vivo, human. The following applies: EE patients that responded to therapy, qPCR normalized to U6. The source says: Patients were selected without regard to age, race, or sex. Normal patients presented to the clinic with symptoms consistent with gastroesophageal reflux disease or EE, but the endoscopic and histologic findings for these patients were normal. […] The active chronic esophagitis patients had eosinophil counts of 1-15 per 400×hpf in the esophageal biopsies. Patients with systemic or swallowed topical glucocorticoid use were excluded from the selection of active EE or active chronic esophagitis patients.
Levels of miRNA expression were measured quantitatively by using the TaqMan MicroRNA Assays (Applied Biosystems), following the manufacturer's protocol. The expression levels were normalized to the U6 endogenous control. Relative expression was calculated as previously described (Lu, T. et al. J. Immunol. 182:4994-5002 (2009)).

Test [1] has as its system human esophageal epithelial cells. Briefly: miRNA expression in IL-13-stimulated human esophageal epithelial cells (microarray, qPCR). The class given is cell-based. The conditions noted are these: after 24 and 48 hours of IL-13 stimulation, normalized to U6. The protocol:
(§1) Human esophageal epithelial cells derived from human patient biopsies were cultured, as described in a previous protocol (Blanchard, C. et al. J. Allergy Clin. Immunol. 120:1292-300 (2007)). The human bronchial epithelial cell line HBEC was cultured as previously described (Ramirez, R. et al. Cancer Res. 64:9027-34 (2004)). The normal human bronchial epithelial cells (Lonza, Basel, Switzerland) were cultured, as described in a previous protocol (Kariyawasam, H. et al. J. Allergy Clin. Immunol. 124:454-462 (2009)). The U937 monocytes and Jurkat T cells were cultured in RPMI 1640 medium (Fisher Scientific) supplemented with 10% FBS, 100 U/mL penicillin, and 100 μg/ml streptomycin. […]
(§2) Human esophageal epithelial cells and bronchial epithelial cells were stimulated with media or 100 ng/mL IL-13 for 24 hours. […] RNA quality was assessed using the 2100 bioanalyzer (Agilent Technologies), and only samples with RNA integrity number >8 were used. […]
(§3) The miRNAs differentially regulated between unstimulated and IL-13 stimulated samples were identified by normalizing the expression data to the average of two endogenous control probes, namely RNU44 and RNU48, then filtered on cycle threshold values <35 and at least a 2-fold change between unstimulated and IL-13-stimulated samples. Statistical significance was determined at p<0.05 with Benjamini Hochberg false discovery rate correction. […]
Background: Real-time PCR tracks product formation cycle by cycle.

Test [2] deals with human bronchial epithelial cells. Description: miRNA expression in IL-13-stimulated human bronchial epithelial cells (microarray, qPCR). Type of test: cell-based. The conditions noted are these: normal human bronchial epithelial cells, after 24 and 48 hours of IL-13 stimulation, normalized to U6. How it is done: as §1, §2, §3
Test [3] has as its system bone marrow-derived eosinophils. Briefly: Cell growth after picropodophyllin treatment, cell counting using a hemacytometer. The conditions noted are these: for growth of miR-223+/+ and miR-223-/- eosinophil cultures: 2 μM picropodophyllin from day 8, counted day 10 and day 12, vs DMSO. Type of test: cell-based, mouse. The protocol:
Bone marrow cells were collected from femurs and tibia of the mice, and the stem/progenitor cell-enriched low-density fraction was isolated by gradient centrifugation using the Histopaque 1083 (Sigma), according to the manufacturer's protocol. The low density fraction of bone marrow cells were cultured in IMDM with 10% FBS, 100 U/ml penicillin, and 100 μg/ml streptomycin supplemented with 100 ng/mL stem cell factor and 100 ng/mL FLT-3 ligand (Peprotech) from day 0 to day 4.
The stem cell factor and FLT-3 ligand were replaced with 10 ng/mL IL-5 on day 4, and the cells were cultured for an additional 10-12 days in the presence of IL-5 (Dyer, K. et al. J. Immunol. 181:4004-9 (2008)). The culture media was changed every other day, and cells were counted and concentration was adjusted to 1×10^6/mL during each media change. Eosinophil maturity was assessed by FACS staining for CCR3 and Siglec-F and/or Diff-Quik (Fisher Scientific) staining of cytospin preparations. Eosinophil progenitor growth was assessed by counting the cells every 2 days using a hemacytometer.
(§4) Bone marrow-derived eosinophils were re-suspended at a concentration of 1×10^6 cells/ml and treated with DMSO or 2 μM of picropodophyllin at day 8 (Yin, S. et al. Neuro. Oncol. 12:19-27 (2010)). Cell growth was determined by cell counting using a hemacytometer on day 10 and day 12. Cell lysates were collected on day 10, and levels of IGF1R expression were determined by western blot.

The next test has as its target T1, IGF1R (Mus musculus, UniProt Q60751).
T1 construct: endogenous in cells; host or cells: bone marrow-derived eosinophil (progenitor) cultures from miR-223+/+ and miR-223-/- mice
Briefly: IGF1R expression by western blot after picropodophyllin treatment. The following applies: day 10, after 2-day treatment with 2 μM picropodophyllin, both miR-223+/+ and miR-223-/- cultures. Type of test: cell-based. How it is done: Cells were rapidly washed in phosphate buffered saline and lysed in M-PER mammalian protein extraction reagent (Pierce, Rockford, Ill.), according to the manufacturer's protocol. Protease inhibitor cocktails (Pierce) and phosphatase inhibitor cocktails (Pierce) were added to the M-PER protein extraction reagent immediately before lysis. Western blot analysis was performed, as described in a previous protocol (Lim, E. et al. J. Biol. Chem. 286:13193-204 (2011)). The assay was conducted using an anti-IGF1R antibody (Cell Signaling Technology, Danvers, Mass.) and an anti-GAPDH antibody (Abcam, Cambridge, UK).
as §4

T1 sequence (Q60751 31-1373): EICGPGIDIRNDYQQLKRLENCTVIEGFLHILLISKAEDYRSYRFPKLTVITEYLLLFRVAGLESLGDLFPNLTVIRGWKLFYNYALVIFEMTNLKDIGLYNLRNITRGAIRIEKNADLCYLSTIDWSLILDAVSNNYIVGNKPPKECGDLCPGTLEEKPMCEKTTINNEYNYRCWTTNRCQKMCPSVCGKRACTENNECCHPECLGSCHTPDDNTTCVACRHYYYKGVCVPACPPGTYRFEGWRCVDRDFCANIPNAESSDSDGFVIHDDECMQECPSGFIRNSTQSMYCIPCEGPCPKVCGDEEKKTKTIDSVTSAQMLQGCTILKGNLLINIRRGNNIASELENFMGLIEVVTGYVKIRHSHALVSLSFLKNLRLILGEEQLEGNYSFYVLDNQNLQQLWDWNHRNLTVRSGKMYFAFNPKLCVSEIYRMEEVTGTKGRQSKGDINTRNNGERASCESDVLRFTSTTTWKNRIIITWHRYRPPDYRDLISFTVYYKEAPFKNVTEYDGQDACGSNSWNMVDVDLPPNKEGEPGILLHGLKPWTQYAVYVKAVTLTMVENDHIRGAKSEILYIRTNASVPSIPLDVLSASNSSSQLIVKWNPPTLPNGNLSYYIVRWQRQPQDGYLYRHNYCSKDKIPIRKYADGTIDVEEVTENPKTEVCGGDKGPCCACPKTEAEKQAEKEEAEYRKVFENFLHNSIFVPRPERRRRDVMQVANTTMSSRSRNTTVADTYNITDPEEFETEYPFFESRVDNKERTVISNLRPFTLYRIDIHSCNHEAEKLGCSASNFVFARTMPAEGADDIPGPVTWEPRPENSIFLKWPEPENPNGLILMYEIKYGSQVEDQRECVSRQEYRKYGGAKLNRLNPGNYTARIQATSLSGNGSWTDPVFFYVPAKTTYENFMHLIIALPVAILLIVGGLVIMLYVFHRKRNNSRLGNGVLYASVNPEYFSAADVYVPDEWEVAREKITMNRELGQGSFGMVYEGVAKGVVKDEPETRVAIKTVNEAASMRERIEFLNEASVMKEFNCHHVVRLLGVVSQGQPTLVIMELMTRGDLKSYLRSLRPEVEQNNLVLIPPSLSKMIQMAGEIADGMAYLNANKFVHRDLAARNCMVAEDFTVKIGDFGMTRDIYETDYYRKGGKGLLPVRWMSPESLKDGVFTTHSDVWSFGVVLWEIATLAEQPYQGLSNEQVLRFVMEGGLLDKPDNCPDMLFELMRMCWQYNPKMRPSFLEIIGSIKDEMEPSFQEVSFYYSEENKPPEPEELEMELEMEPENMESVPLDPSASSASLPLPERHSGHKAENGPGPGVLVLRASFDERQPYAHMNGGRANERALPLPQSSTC

For `CCC(=O)O[C@]1(C(=O)SCF)[C@H](C)C[C@H]2[C@@H]3C[C@H](F)C4=CC(=O)C=C[C@]4(C)[C@@]3(F)[C@@H](O)C[C@@]21C` [fluticasone propionate], the “miR-375 levels in esophageal tissue” value with miR-375 is listed as “comparable to normal healthy controls”.

As to “IL-13: cytokine used at 100 ng/mL to stimulate human esophageal and bronchial epithelial cells”, the miR-375 expression result in test [1] and in test [2] was “down-regulated” in each case.

On to `COc1cc([C@@H]2c3cc4c(cc3[C@H](O)[C@H]3COC(=O)[C@@H]23)OCO4)cc(OC)c1OC` [picropodophyllin], for which the “growth of miR-223+/+ and miR-223-/- eosinophil cultures” value in test [3] is reported as “inhibited”; in test [3] (listed as pricopodphyllin), “inhibits”. The “increased proliferation seen in miR-223-/- cultures” value in test [3] (2 μM picropodophyllin, miR-223-/- vs miR-223+/+ cultures) is on record as “completely reversing”. Moreover, the “IGF1 receptor expression level” value at IGF1R was “nearly complete down-regulation”.
